Results as given in PubChem BioAssay AID248 (DTP/NCI, 2004).
Where “and” joins values, the source holds several entries; their conditions need not be identical. Equal entries are not always repeated. Toxic doses and inconclusive results are not listed. No stated cut-off is given here; in the data, active means T/C of 150% or more; inactive means T/C below 125%.

Tested on: L1210 leukemia ip in BDF1 mice, survival T/C
Test: NCI In Vivo Anticancer Drug Screen. Data for tumor model L1210 Leukemia (intraperitoneal) in B6D2F1 (BDF1) mice
Settings: higher = longer survival
Outline: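 Mice bearing the transplanted tumor received compound or vehicle. Survival of the treated group was divided by that of the vehicle-treated control group to give the ratio.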

[1] = endpoint: mean survival time, dose: 100.0 mg/kg/injection, schedule: Q01DX001 (ip), vehicle: carboxymethylcellulose (CMC)
[2] = endpoint: mean survival time, dose: 200.0 mg/kg/injection, schedule: Q01DX001 (ip), vehicle: carboxymethylcellulose (CMC)
[3] = endpoint: mean survival time, dose: 400.0 mg/kg/injection, schedule: Q01DX001 (ip), vehicle: carboxymethylcellulose (CMC)
[4] = endpoint: mean survival time, dose: 100.0 mg/kg/injection, schedule: Q01DX009 (ip), vehicle: Klucel (hydroxypropylcellulose) (HPC)
[5] = endpoint: mean survival time, dose: 200.0 mg/kg/injection, schedule: Q01DX009 (ip), vehicle: Klucel (hydroxypropylcellulose) (HPC)
[6] = endpoint: mean survival time, dose: 400.0 mg/kg/injection, schedule: Q01DX009 (ip), vehicle: Klucel (hydroxypropylcellulose) (HPC)
[7] = endpoint: mean survival time, dose: 50.0 mg/kg/injection, schedule: Q01DX001 (ip), vehicle: saline
[8] = endpoint: mean survival time, dose: 100.0 mg/kg/injection, schedule: Q01DX001 (ip), vehicle: saline
[9] = endpoint: mean survival time, dose: 100.0 mg/kg/injection, schedule: Q04DX002 (ip), vehicle: Klucel (hydroxypropylcellulose) (HPC)
[10] = endpoint: mean survival time, dose: 200.0 mg/kg/injection, schedule: Q04DX002 (ip), vehicle: Klucel (hydroxypropylcellulose) (HPC)
[11] = endpoint: mean survival time, dose: 400.0 mg/kg/injection, schedule: Q04DX002 (ip), vehicle: Klucel (hydroxypropylcellulose) (HPC)
[12] = endpoint: mean survival time, dose: 100.0 mg/kg/injection, schedule: Q04DX003 (ip), vehicle: saline with Tween-80
[13] = endpoint: mean survival time, dose: 200.0 mg/kg/injection, schedule: Q04DX003 (ip), vehicle: saline with Tween-80
[14] = endpoint: mean survival time, dose: 100.0 mg/kg/injection, schedule: Q04DX003 (ip), vehicle: Klucel (hydroxypropylcellulose) (HPC)
[15] = endpoint: mean survival time, dose: 200.0 mg/kg/injection, schedule: Q04DX003 (ip), vehicle: Klucel (hydroxypropylcellulose) (HPC)
[16] = endpoint: mean survival time, dose: 400.0 mg/kg/injection, schedule: Q04DX003 (ip), vehicle: Klucel (hydroxypropylcellulose) (HPC)

Measured: T/C

Cn1c(N)nc2nc[nH]c2c1=O
inactive: endpoint: mean survival time, dose: 18.7 mg/kg/injection, schedule: Q01DX Z (ip), vehicle: methylcellulose (MC) 95 % of control | endpoint: mean survival time, dose: 37.5 mg/kg/injection, schedule: Q01DX Z (ip), vehicle: methylcellulose (MC) 89 % of control

CCOC(=O)CNN
inactive: endpoint: mean survival time, dose: 4.0 mg/kg/injection, schedule: Q01DX009 (ip), vehicle: saline 93 % of control | endpoint: mean survival time, dose: 8.0 mg/kg/injection, schedule: Q01DX009 (ip), vehicle: saline 108 % of control | endpoint: mean survival time, dose: 16.0 mg/kg/injection, schedule: Q01DX009 (ip), vehicle: saline 103 % of control | endpoint: mean survival time, dose: 28.0 mg/kg/injection, schedule: Q01DX001 (ip), vehicle: saline 101 % of control | endpoint: mean survival time, dose: 56.0 mg/kg/injection, schedule: Q01DX001 (ip), vehicle: saline 108 % of control | endpoint: mean survival time, dose: 112.0 mg/kg/injection, schedule: Q01DX001 (ip), vehicle: saline 114 % of control

CC1COC(C(C)C)O1 (configuration not stated)
inactive: endpoint: mean survival time, dose: 50.0 mg/kg/injection, schedule: Q01DX009 (ip), vehicle: acetone 90 % of control | endpoint: mean survival time, dose: 100.0 mg/kg/injection, schedule: Q01DX009 (ip), vehicle: acetone 97 % of control | endpoint: mean survival time, dose: 100.0 mg/kg/injection, schedule: Q04DX003 (ip), vehicle: acetone 95 % of control | endpoint: mean survival time, dose: 200.0 mg/kg/injection, schedule: Q01DX009 (ip), vehicle: acetone 95 % of control | endpoint: mean survival time, dose: 200.0 mg/kg/injection, schedule: Q04DX003 (ip), vehicle: acetone 103 % of control | endpoint: mean survival time, dose: 400.0 mg/kg/injection, schedule: Q04DX003 (ip), vehicle: acetone 90 % of control

COC(=O)C1OC(n2cnc3c(Cl)ncnc32)C(OC(C)=O)C(OC(C)=O)C1OC(C)=O (configuration not stated)
inactive: endpoint: mean survival time, dose: 50.0 mg/kg/injection, schedule: Q01DX001 (ip), vehicle: carboxymethylcellulose (CMC) 100 % of control | [1] 108 % of control | [2] 103 % of control | [3] 97 % of control

CC(C)P(=O)(OCc1ccccc1)C(C)C
inactive: [4] 97 % of control | [5] 94 % of control | [6] 89 % of control

O=C(O)CC1(CC(=O)O)C(=O)N(c2ccccc2)c2ccccc21
inactive: endpoint: mean survival time, dose: 100.0 mg/kg/injection, schedule: Q01DX001 (ip), vehicle: saline with Tween-80 95 % of control | endpoint: mean survival time, dose: 200.0 mg/kg/injection, schedule: Q01DX001 (ip), vehicle: saline with Tween-80 90 % of control | endpoint: mean survival time, dose: 400.0 mg/kg/injection, schedule: Q01DX001 (ip), vehicle: saline with Tween-80 97 % of control

CCN=C(N)N=C(N)N
inactive: endpoint: mean survival time, dose: 25.0 mg/kg/injection, schedule: Q01DX001 (ip), vehicle: saline 96 % of control | [7] 106 % of control | [8] 102 % of control

Cc1cnc2c(N)nc(N)nc2n1
inactive: [9] 110 % of control | [10] 98 % of control | [11] 94 % of control

CC(C)(O)C(=O)N/N=C/c1ccc(Cl)cc1Cl
inactive: endpoint: mean survival time, dose: 25.0 mg/kg/injection, schedule: Q01DX009 (ip), vehicle: saline with Tween-80 102 % of control

O=C(OCC1OC(n2ccc(=S)[nH]c2=O)C(OC(=O)c2ccccc2)C1OC(=O)c1ccccc1)c1ccccc1 (configuration not stated)
inactive: [7] 98 % of control | [8] 95 % of control | endpoint: mean survival time, dose: 200.0 mg/kg/injection, schedule: Q01DX001 (ip), vehicle: saline 101 % of control | endpoint: mean survival time, dose: 400.0 mg/kg/injection, schedule: Q01DX001 (ip), vehicle: saline 104 % of control

C1CCC2(CC1)CCNCC2
inactive: [7] 102 % of control

CN(C)C(=O)NNC(=O)N(C)C
inactive: endpoint: mean survival time, dose: 100.0 mg/kg/injection, schedule: Q01DX009 (ip), vehicle: saline 103 % of control | endpoint: mean survival time, dose: 100.0 mg/kg/injection, schedule: Q04DX003 (ip), vehicle: saline 94 % of control | endpoint: mean survival time, dose: 200.0 mg/kg/injection, schedule: Q01DX009 (ip), vehicle: saline 95 % of control | endpoint: mean survival time, dose: 200.0 mg/kg/injection, schedule: Q04DX003 (ip), vehicle: saline 96 % of control | endpoint: mean survival time, dose: 400.0 mg/kg/injection, schedule: Q01DX009 (ip), vehicle: saline 95 % of control | endpoint: mean survival time, dose: 400.0 mg/kg/injection, schedule: Q04DX003 (ip), vehicle: saline 100 % of control

COc1cc(C(=O)N2CCOC23CCN(Cc2ccccc2)CC3)cc(OC)c1OC
inactive: endpoint: mean survival time, dose: 100.0 mg/kg/injection, schedule: Q01DX009 (ip), vehicle: saline with Tween-80 95 % of control | [12] 102 % of control | endpoint: mean survival time, dose: 200.0 mg/kg/injection, schedule: Q01DX009 (ip), vehicle: saline with Tween-80 90 % of control | [13] 100 % of control | endpoint: mean survival time, dose: 400.0 mg/kg/injection, schedule: Q04DX003 (ip), vehicle: saline with Tween-80 100 % of control

COc1ccc(OC)c(NC(=O)Nc2nccs2)c1
inactive: endpoint: mean survival time, dose: 100.0 mg/kg/injection, schedule: Q01DX001 (ip), vehicle: Klucel (hydroxypropylcellulose) (HPC) 95 % of control | [4] 97 % of control | [9] 97 % of control and 98 % of control | [14] 96 % of control and 122 % of control | endpoint: mean survival time, dose: 200.0 mg/kg/injection, schedule: Q01DX001 (ip), vehicle: Klucel (hydroxypropylcellulose) (HPC) 90 % of control | [5] 88 % of control | [10] 96 % of control and 90 % of control | [15] 100 % of control | endpoint: mean survival time, dose: 400.0 mg/kg/injection, schedule: Q01DX001 (ip), vehicle: Klucel (hydroxypropylcellulose) (HPC) 95 % of control | [6] 91 % of control | [11] 96 % of control and 101 % of control | [16] 102 % of control and 116 % of control

S=P(NCCCCCCCNP(=S)(N1CC1)N1CC1)(N1CC1)N1CC1
inactive: [1] 106 % of control | [2] 98 % of control | [3] 104 % of control

F
inactive: endpoint: mean survival time, dose: 5.0 mg/kg/injection, schedule: Q01DX001 (ip), vehicle: saline 89 % of control | endpoint: mean survival time, dose: 10.0 mg/kg/injection, schedule: Q01DX001 (ip), vehicle: saline 97 % of control | endpoint: mean survival time, dose: 12.0 mg/kg/injection, schedule: Q01DX Z (ip), vehicle: saline 98 % of control | endpoint: mean survival time, dose: 20.0 mg/kg/injection, schedule: Q01DX001 (ip), vehicle: saline 103 % of control | endpoint: mean survival time, dose: 24.0 mg/kg/injection, schedule: Q01DX Z (ip), vehicle: saline 101 % of control | endpoint: mean survival time, dose: 40.0 mg/kg/injection, schedule: Q01DX001 (ip), vehicle: saline 97 % of control | endpoint: mean survival time, dose: 48.0 mg/kg/injection, schedule: Q01DX Z (ip), vehicle: saline 110 % of control | endpoint: mean survival time, dose: 62.0 mg/kg/injection, schedule: Q01DX Z (ip), vehicle: saline 92 % of control | endpoint: median survival time, dose: 5.0 mg/kg/injection, schedule: Q01DX009 (ip), vehicle: water 93 % of control | endpoint: median survival time, dose: 10.0 mg/kg/injection, schedule: Q01DX009 (ip), vehicle: water 100 % of control | endpoint: median survival time, dose: 20.0 mg/kg/injection, schedule: Q01DX009 (ip), vehicle: water 106 % of control | endpoint: median survival time, dose: 40.0 mg/kg/injection, schedule: Q01DX009 (ip), vehicle: water 106 % of control

CC(=O)OCC(OC(C)=O)C(OC(C)=O)C(C#N)OC(C)=O (configuration not stated)
inactive: endpoint: mean survival time, dose: 12.5 mg/kg/injection, schedule: Q01DX009 (ip), vehicle: Klucel (hydroxypropylcellulose) (HPC) 95 % of control | endpoint: mean survival time, dose: 12.5 mg/kg/injection, schedule: Q04DX003 (ip), vehicle: Klucel (hydroxypropylcellulose) (HPC) 102 % of control | endpoint: mean survival time, dose: 25.0 mg/kg/injection, schedule: Q01DX009 (ip), vehicle: Klucel (hydroxypropylcellulose) (HPC) 95 % of control | endpoint: mean survival time, dose: 25.0 mg/kg/injection, schedule: Q04DX003 (ip), vehicle: Klucel (hydroxypropylcellulose) (HPC) 96 % of control | endpoint: mean survival time, dose: 50.0 mg/kg/injection, schedule: Q01DX009 (ip), vehicle: Klucel (hydroxypropylcellulose) (HPC) 102 % of control | endpoint: mean survival time, dose: 50.0 mg/kg/injection, schedule: Q04DX003 (ip), vehicle: Klucel (hydroxypropylcellulose) (HPC) 102 % of control | [12] 102 % of control | [13] 102 % of control

O=[N+]([O-])c1cc([N+](=O)[O-])c(NN(c2ccccc2)c2ccccc2)c([N+](=O)[O-])c1
inactive: endpoint: mean survival time, dose: 12.5 mg/kg/injection, schedule: Q01DX Z (ip), vehicle: other 106 % of control | endpoint: mean survival time, dose: 25.0 mg/kg/injection, schedule: Q01DX Z (ip), vehicle: other 102 % of control | [14] 92 % of control | [15] 88 % of control | [16] 91 % of control
